The source of these data is patent publication US10626094B2 (La Jolla Institute of Allergy & Immunology, priority 2014, dated 2020).

SMILES strings stand for the structures.

Sequence of LMPTP-A (Low Molecular Weight Protein Tyrosine Phosphatase-A) enzyme (P24666 whole entry): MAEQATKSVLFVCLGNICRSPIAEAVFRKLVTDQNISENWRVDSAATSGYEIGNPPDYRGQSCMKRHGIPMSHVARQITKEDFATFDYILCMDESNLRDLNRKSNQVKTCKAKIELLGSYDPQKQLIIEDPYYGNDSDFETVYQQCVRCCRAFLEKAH

The test has as its target LMPTP-A (Low Molecular Weight Protein Tyrosine Phosphatase-A) enzyme (Homo sapiens (Human), UniProt P24666). As to the kind of experiment: LMPTP primary screening / LMPTP (OMFP) enzyme inhibition assay, fluorescence intensity. The conditions noted are these: LMPTP-A, OMFP substrate, method of Example 2; read-out: IC50. The format is biochemical. A digest of the protocol: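 0.625 nM LMPTP-A with 400 μM OMFP substrate in 50 mM Bis-Tris pH 6.0, 1 mM DTT, 0.01% Triton X-100, […]. Compounds at 20 μM final. Incubated 50 min at room temperature in the dark; fluorescence intensity read.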
For orientation: IC50 means the concentration at which inhibition is half-maximal. For the molecule `FC(F)(F)c1cc(Cl)ccc1-c1cc(NCCCN2CCCCC2)c2ccccc2n1` [Compound I119], the IC50 lay within 801 to 5000 nM.
As to `FC(F)(F)c1ccc(-c2cc(NCCCC3CCCNC3)c3ccccc3n2)c(Cl)c1` (centres unmarked) [Compound I120], the IC50 is 801 to 5000 nM.
On to `CS(=O)(=O)c1ccc(-c2cc(NCCCN3CCCCC3)c3ccccc3n2)c(C(F)(F)F)c1` [Compound I121], for which the IC50 lay in the range of 801 to 5000 nM.
With `Fc1ccc(-c2cc(NCCCN3CCCCC3)c3ccccc3n2)c(C(F)(F)F)c1` [Compound I122], the IC50 fell in the range of 801 to 5000 nM.
For the molecule `NC(=O)c1cccc(-c2cc(NCCCN3CCCCC3)c3ccccc3n2)c1` [Compound I123], the IC50 lay in the range of 801 to 5000 nM.
On to `c1ccc2[nH]c(-c3cc(NCCCN4CCCCC4)c4ccccc4n3)cc2c1` [Compound I124], for which the IC50 was over 5000 nM.
On to `c1ccc2c(NCCCN3CCCCC3)cc(-c3ccc4c(c3)OCCO4)nc2c1` [Compound I125], for which the 50% inhibitory concentration (IC50) lay within 801 to 5000 nM.
Turning to `Fc1cc(Cl)ccc1-c1cc(NCCCN2CCCCC2)c2ccccc2n1` [Compound I126], the IC50 lay within 200 to 800 nM.
The value for `O=C(O)c1cccc(-c2cc(NCCCN3CCCCC3)c3ccccc3n2)c1` [Compound I128] was 801 to 5000 nM; that for `CN(C)c1cccc(-c2cc(NCCCN3CCCCC3)c3ccccc3n2)c1` [Compound I129] was 801 to 5000 nM.
Take `Fc1cccc(F)c1-c1cc(NCCCN2CCCCC2)c2ccccc2n1` [Compound I130]: the half-maximal inhibitory concentration (IC50) fell in the range of 801 to 5000 nM.
The value for `FC(F)(F)COc1ccccc1-c1cc(NCCCN2CCCCC2)c2ccccc2n1` [Compound I131] was 801 to 5000 nM.
In the case of `CS(=O)(=O)c1ccc(-c2cc(NCCCN3CCCCC3)c3ccccc3n2)cc1` [Compound I132], the IC50 was 801 to 5000 nM.
Turning to `COc1ccc(Cl)cc1-c1cc(NCCCN2CCCCC2)c2ccccc2n1` [Compound I133], the IC50 is 801 to 5000 nM.
Consider `Cc1cc(Cl)ccc1-c1cc(NCCCN2CCCCC2)c2ccccc2n1` [Compound I134], for which the IC50 lay within 801 to 5000 nM.
With `COCc1ccc(-c2cc(NCCCN3CCCCC3)c3ccccc3n2)cc1` [Compound I135], the IC50 is 200 to 800 nM.
Turning to `c1ccc2c(NCCCN3CCCCC3)cc(-c3ccsc3)nc2c1` [Compound I136], the IC50 is over 5000 nM.
The value for `CCOC(=O)c1cccc(-c2cc(NCCCN3CCCCC3)c3ccccc3n2)c1` [Compound I137] was 801 to 5000 nM; that for `c1ccc2sc(-c3cc(NCCCN4CCCCC4)c4ccccc4n3)cc2c1` [Compound I140] was 801 to 5000 nM; that for `COc1ncc(-c2cc(NCCCN3CCCCC3)c3ccccc3n2)c(OC)n1` [Compound I141] was 801 to 5000 nM.
Consider `Clc1ccc(-c2cc(NCCCN3CCCCC3)c3ccccc3n2)s1` [Compound I142], for which the concentration for half-maximal inhibition (IC50) was 801 to 5000 nM.
As for `c1ccc2c(NCCCN3CCCCC3)cc(-c3cncnc3)nc2c1` [Compound I143], the IC50 was in the range of 801 to 5000 nM.
For the molecule `c1csc(-c2cc(NCCCC3CCCNC3)c3ccccc3n2)c1` (centres unmarked) [Compound I144, (3-piperidylpropyl)(2-(2-thienyl)(4-quinolyl))amine], the IC50 was 801 to 5000 nM.
With `C[Si](C)(C)c1cccc(-c2cc(NCCCN3CCCCC3)c3ccccc3n2)c1` [Compound I145], the half-inhibitory concentration (IC50) lay within 801 to 5000 nM.
`CS(=O)(=O)c1cccc(-c2cc(NCCCN3CCCCC3)c3ccccc3n2)c1` [Compound I146]: the half-maximal inhibitory concentration (IC50) lay in the range of 801 to 5000 nM.
`NCc1ccc(-c2cc(NCCCN3CCCCC3)c3ccccc3n2)cc1` [Compound I148]: the IC50 lay within 200 to 800 nM.
As to `FC(F)(F)c1ccc(-c2cc(NCCCN3CCCCC3)c3ccccc3n2)c(C(F)(F)F)c1` [Compound I149], the concentration for half-maximal inhibition (IC50) was in the range of 200 to 800 nM.
For `Cc1cc(NCCCN2CCCCC2)c2ccccc2n1` [Compound I151], the half-inhibitory concentration (IC50) was over 5000 nM.
As for `O=[N+]([O-])c1ccc(C(F)(F)F)c(-c2cc(NCCCN3CCCCC3)c3ccccc3n2)c1` [Compound I152], the IC50 fell in the range of 801 to 5000 nM.
For `FC(F)(F)c1ncccc1-c1cc(NCCCN2CCCCC2)c2ccccc2n1` [Compound I153], the IC50 fell in the range of 801 to 5000 nM.
The value for `COc1ncccc1-c1cc(NCCCN2CCCCC2)c2ccccc2n1` [Compound I154] was 801 to 5000 nM.
The same measure for `COc1ccc(-c2cc(NCCCN3CCCCC3)c3ccccc3n2)cn1` [Compound I156]: 801 to 5000 nM; for `CSc1ccccc1-c1cc(NCCCN2CCCCC2)c2ccccc2n1` [Compound I158]: 200 to 800 nM.
As for `Cc1ccccc1-c1cc(NCCCN2CCCCC2)c2ccccc2n1` [Compound I159], the IC50 lay in the range of 801 to 5000 nM.
`Cc1cccc(-c2cc(NCCCN3CCCCC3)c3ccccc3n2)c1C` [Compound I161]: the IC50 fell in the range of 801 to 5000 nM.
As to `Fc1cccc(-c2cc(NCCCC3CCCNC3)c3ccccc3n2)c1` (centres unmarked) [Compound I162, [2-(3-fluorophenyl)(4-quinolyl)](3-piperidylpropyl)amine], the IC50 was 801 to 5000 nM.
`COc1cccc(F)c1-c1cc(NCCCN2CCCCC2)c2ccccc2n1` [Compound I164]: the IC50 lay within 801 to 5000 nM.
Turning to `FC(F)(F)Oc1ccccc1-c1cc(NCCCC2CCCNC2)c2ccccc2n1` (centres unmarked) [Compound I166, (3-piperidylpropyl){2-[2-(trifluoromethoxy)phenyl](4-quinolyl)}amine], the IC50 was in the range of 200 to 800 nM.
Turning to `c1ccc2c(NCCCN3CCCCC3)cc(-c3ccc4c(c3)OCO4)nc2c1` [Compound I167, (2-(2H-benzo[3,4-d]1,3-dioxolen-5-yl)(4-quinolyl))(3-piperidylpropyl)amine], the IC50 lay in the range of 801 to 5000 nM.
The value for `CSc1ccc(-c2cc(NCCCN3CCCCC3)c3ccccc3n2)cc1` [Compound I169] was 801 to 5000 nM; that for `COc1cccc(OC)c1-c1cc(NCCCN2CCCCC2)c2ccccc2n1` [Compound I172] was over 5000 nM; that for `COc1ccc(OC)c(-c2cc(NCCCN3CCCCC3)c3ccccc3n2)c1` [Compound I173] was 801 to 5000 nM.
Take `COc1ccc(-c2cc(NCCCN3CCCCC3)c3ccccc3n2)c(OC)c1` [Compound I174]: the half-maximal inhibitory concentration (IC50) fell in the range of 801 to 5000 nM.
Take `c1c[nH]c(-c2cc(NCCCC3CCCNC3)c3ccccc3n2)c1` (centres unmarked) [Compound I175, (3-piperidylpropyl)(2-pyrrol-2-yl(4-quinolyl))amine]: the IC50 was in the range of 801 to 5000 nM.
Regarding `Cc1nc(C)c(-c2cc(NCCCC3CCCNC3)c3ccccc3n2)s1` (centres unmarked) [Compound I176, [2-(2,4-dimethyl(1,3-thiazol-5-yl))(4-quinolyl)](3-piperidylpropyl)amine], the half-maximal inhibitory concentration (IC50) fell in the range of 801 to 5000 nM.
`c1ccc2c(NCCCC3CCCNC3)cc(-c3ccoc3)nc2c1` (centres unmarked) [Compound I177, (2-(3-furyl)(4-quinolyl))(3-piperidylpropyl)amine]: the concentration for half-maximal inhibition (IC50) fell in the range of 801 to 5000 nM.
In the case of `Cn1ccc(-c2cc(NCCCN3CCCCC3)c3ccccc3n2)n1` [Compound I178], the half-maximal inhibitory concentration (IC50) is over 5000 nM.
For `c1ccc(-c2cc(NCCCN3CCOCC3)c3ccccc3n2)cc1` [Compound I179, (3-morpholin-4-ylpropyl)(2-phenyl(4-quinolyl))amine], the IC50 is over 5000 nM.
For `c1ccc(-c2cc(NCCN3CCCC3)c3ccccc3n2)cc1` [Compound I181, (2-phenyl(4-quinolyl))(2-pyrrolidinylethyl)amine], the IC50 is over 5000 nM.
Consider `CN(C)CCNc1cc(-c2ccccc2)nc2ccccc12` [Compound I183, dimethyl{2-[(2-phenyl(4-quinolyl))amino]ethyl}amine], for which the IC50 was over 5000 nM.
With `c1ccc(-c2nc(NCCN3CCOCC3)c3ccccc3n2)cc1` [Compound I184, (2-morpholin-4-ylethyl)(2-phenylquinazolin-4-yl)amine], the 50% inhibitory concentration (IC50) is over 5000 nM.
With `Fc1ccc(-c2cc(NCCCC3CCCNC3)c3ccccc3n2)cc1` (centres unmarked) [Compound I188, [2-(4-fluorophenyl)(4-quinolyl)](3-piperidylpropyl)amine], the IC50 fell in the range of 801 to 5000 nM.
Turning to `O=C(NCCc1ccncc1)c1ccc(-c2cc(NCCCN3CCCCC3)c3ccccc3n2)cc1` [Compound I189], the half-maximal inhibitory concentration (IC50) lay in the range of 200 to 800 nM.
In the case of `CCN(CC)CCCNC(=O)c1ccc(-c2cc(NCCCN3CCCCC3)c3ccccc3n2)cc1` [Compound I190], the 50% inhibitory concentration (IC50) fell in the range of 200 to 800 nM.
In the case of `O=C(NCCN1CCCCC1)c1ccc(-c2cc(NCCCN3CCCCC3)c3ccccc3n2)cc1` [Compound I191], the IC50 lay within 200 to 800 nM.
`O=C(NCCCN1CCOCC1)c1ccc(-c2cc(NCCCN3CCCCC3)c3ccccc3n2)cc1` [Compound I192]: the half-maximal inhibitory concentration (IC50) lay in the range of 200 to 800 nM.
The same measure for `O=C(c1ccc(-c2cc(NCCCN3CCCCC3)c3ccccc3n2)cc1)N1CCNCC1` [Compound I193, piperazinyl 4-{4-[(3-piperidylpropyl)amino](2-quinolyl)}phenyl ketone]: 200 to 800 nM; for `O=C(c1ccc(-c2cc(NCCCN3CCCCC3)c3ccccc3n2)cc1)N1CCCCC1` [Compound I194, piperidyl 4-{4-[(3-piperidylpropyl)amino](2-quinolyl)}phenyl ketone]: 801 to 5000 nM.
On to `NCCCNC(=O)c1ccc(-c2cc(NCCCN3CCCCC3)c3ccccc3n2)cc1` [Compound I195], for which the IC50 is 200 to 800 nM.
As to `O=C(NC1CCNCC1)c1ccc(-c2cc(NCCCN3CCCCC3)c3ccccc3n2)cc1` [Compound I196], the IC50 lay within 200 to 800 nM.
Consider `O=C(NCC1CCNCC1)c1ccc(-c2cc(NCCCN3CCCCC3)c3ccccc3n2)cc1` [Compound I197], for which the 50% inhibitory concentration (IC50) lay in the range of 200 to 800 nM.
As to `O=C(NCCCN1CCCCC1)c1ccc(-c2cc(NCCCN3CCCCC3)c3ccccc3n2)cc1` [Compound I198], the half-inhibitory concentration (IC50) was in the range of 200 to 800 nM.
`COc1ccc(-c2cc(NCCc3ccccn3)c3ccccc3n2)cc1` [Compound I199, [2-(4-methoxyphenyl)(4-quinolyl)](2-(2-pyridyl)ethyl)amine]: the 50% inhibitory concentration (IC50) lay within 801 to 5000 nM.
As for `COc1ccc(-c2cc(NCCCc3ccncc3)c3ccccc3n2)cc1` [Compound I200, [2-(4-methoxyphenyl)(4-quinolyl)](3-(4-pyridyl)propyl)amine], the concentration for half-maximal inhibition (IC50) was 801 to 5000 nM.
Regarding `COc1ccc(-c2cc(NCCc3ccncc3)c3ccccc3n2)cc1` [Compound I201, [2-(4-methoxyphenyl)(4-quinolyl)](2-(4-pyridyl)ethyl)amine], the half-inhibitory concentration (IC50) is 801 to 5000 nM.
